ChEMBL document CHEMBL1201862, “PubChem BioAssay data set” (2004)
The source made the active and inactive calls. For most assays here, no stated cut-off is given here; in the data, actives have a measured EC50 and inactives only a lower limit.

Assays:
[1] = NIH-3T3 fibroblast cytotoxicity, dose response, cytotoxicity control, cell-based, fluorescence, Alamar Blue, secondary assay (AID 2327); assay type: functional;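 further: NIH-3T3 mouse fibroblasts cultured with fluconazole at 8 µg/mL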
[2] = system: Streptococcus sp. 'group A'; assay: Streptococcus pyogenes SK(-)GAS viability under kanamycin – luminescence, BacTiterGlo, confirmation, counter-screen for streptokinase expression inhibitor project, dose response (AID 1900); assay type: functional, organism-based
cells [3] = assay type: functional, cell-based
[4] = fluconazole-exposed Candida albicans growth modulators – fluorescence, retest, confirmation (AID 2467); assay type: functional, cell-based
[5] = Trypanosoma cruzi growth suppression in host cells – NIH3T3 host cells, beta-gal luminescence, confirmation (AID 2044); assay type: functional, cell-based;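 further: intracellular parasites grown in NIH/3T3 mouse fibroblasts as host cells; luminescent beta-galactosidase reporter signal from transgenic T. cruzi replicating inside host cells; inhibitors lower the luminescence signal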
cells [6] = assay type: functional, cell-based; remark: listed apart in the source
[7] = molecular target: T1, Serine/threonine-protein phosphatase (Candida dubliniensis (strain CD36 / CBS 7987 / NCPF 3949 / NRRLY-17841) (Yeast), UniProt B9W6M3); assay: blockers of CaCl2-induced CDRE-lacZ signaling – S. cerevisiae, luminescence, secondary, dose response (AID 2388); assay type: functional, cell-based;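 further: yeast reporter cells carrying a calcineurin-responsive lacZ construct stimulated with calcium chloride; luminescent beta-galactosidase reporter signal in whole cells rather than isolated phosphatase activity; potency for inhibition where a drop in reporter signal means calcineurin blockade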
T1 sequence (B9W6M3 whole entry): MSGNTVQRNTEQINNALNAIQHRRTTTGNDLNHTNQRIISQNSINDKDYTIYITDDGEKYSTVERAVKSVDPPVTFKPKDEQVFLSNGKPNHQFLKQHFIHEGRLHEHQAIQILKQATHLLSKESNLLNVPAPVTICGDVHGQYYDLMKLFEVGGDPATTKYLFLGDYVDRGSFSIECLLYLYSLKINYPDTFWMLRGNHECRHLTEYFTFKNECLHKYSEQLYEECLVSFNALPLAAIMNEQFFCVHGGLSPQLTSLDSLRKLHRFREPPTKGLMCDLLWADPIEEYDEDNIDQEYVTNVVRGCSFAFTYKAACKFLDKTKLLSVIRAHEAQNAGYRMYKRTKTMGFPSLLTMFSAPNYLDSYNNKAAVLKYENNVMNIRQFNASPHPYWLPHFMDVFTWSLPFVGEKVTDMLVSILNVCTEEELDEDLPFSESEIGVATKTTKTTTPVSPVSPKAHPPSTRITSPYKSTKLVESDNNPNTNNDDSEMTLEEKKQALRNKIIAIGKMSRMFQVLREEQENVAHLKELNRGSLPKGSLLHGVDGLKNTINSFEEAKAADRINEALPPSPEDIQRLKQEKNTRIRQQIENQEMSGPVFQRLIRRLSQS

[8] = NIH3T3 cell viability loss – ATP luminescence, mouse fibroblasts, counter-screen, dose response (AID 2010); assay type: functional, cell-based;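 further: cells exposed to compound for about 90 hours before reading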
Streptococcus = assay: GAS UMAA2166 growth inhibition – luminescence, BacTiterGlo, counter-screen for streptokinase expression inhibitor project, dose response (AID 1915); assay type: functional, organism-based;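 further: potency for reduction of bacterial viability or growth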
Hexokinase HKDC1 = molecular target: T2, Hexokinase HKDC1 (Homo sapiens, UniProt Q2TB90); assay: activation of HKDC1 glucose phosphorylation – biochemical, W721R variant, dose response (AID 504730); assay type: functional
T2 sequence (Q2TB90 whole entry): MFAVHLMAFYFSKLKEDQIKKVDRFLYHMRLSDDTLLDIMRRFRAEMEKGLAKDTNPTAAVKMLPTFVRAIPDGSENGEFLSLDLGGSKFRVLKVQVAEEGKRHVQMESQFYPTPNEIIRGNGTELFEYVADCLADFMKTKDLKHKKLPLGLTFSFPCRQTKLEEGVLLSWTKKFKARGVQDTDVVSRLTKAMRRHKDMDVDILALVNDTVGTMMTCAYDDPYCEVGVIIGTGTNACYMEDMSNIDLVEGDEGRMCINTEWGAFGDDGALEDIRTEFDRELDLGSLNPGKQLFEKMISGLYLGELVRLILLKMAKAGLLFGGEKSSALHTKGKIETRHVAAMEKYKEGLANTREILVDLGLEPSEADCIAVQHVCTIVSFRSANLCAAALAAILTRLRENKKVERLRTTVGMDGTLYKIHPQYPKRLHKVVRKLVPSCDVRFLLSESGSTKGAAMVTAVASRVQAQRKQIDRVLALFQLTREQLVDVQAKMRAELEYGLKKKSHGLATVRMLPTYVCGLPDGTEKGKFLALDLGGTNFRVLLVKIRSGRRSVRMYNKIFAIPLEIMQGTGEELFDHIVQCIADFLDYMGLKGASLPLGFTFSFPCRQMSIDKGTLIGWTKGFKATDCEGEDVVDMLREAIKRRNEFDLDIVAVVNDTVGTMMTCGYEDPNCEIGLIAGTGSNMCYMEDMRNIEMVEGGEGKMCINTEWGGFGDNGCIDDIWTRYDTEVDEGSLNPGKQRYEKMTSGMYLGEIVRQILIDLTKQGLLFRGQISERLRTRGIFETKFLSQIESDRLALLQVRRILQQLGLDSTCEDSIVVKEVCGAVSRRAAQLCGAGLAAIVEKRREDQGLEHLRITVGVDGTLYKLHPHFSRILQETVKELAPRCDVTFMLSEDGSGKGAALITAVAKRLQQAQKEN

Nonstructural protein 1 = Nonstructural protein 1 (Influenza A virus, UniProt Q194T2); assay type: functional, Influenza A virus (A/California/07/2009(H1N1))
Hexokinase-1 = molecular target: T3, Hexokinase-1 (Homo sapiens, UniProt P19367); assay: HK1 enzyme activation by HKDC1 hits – biochemical, selectivity assay for HKDC1 activator project, dose response (AID 504762); assay type: functional
T3 sequence (P19367 whole entry): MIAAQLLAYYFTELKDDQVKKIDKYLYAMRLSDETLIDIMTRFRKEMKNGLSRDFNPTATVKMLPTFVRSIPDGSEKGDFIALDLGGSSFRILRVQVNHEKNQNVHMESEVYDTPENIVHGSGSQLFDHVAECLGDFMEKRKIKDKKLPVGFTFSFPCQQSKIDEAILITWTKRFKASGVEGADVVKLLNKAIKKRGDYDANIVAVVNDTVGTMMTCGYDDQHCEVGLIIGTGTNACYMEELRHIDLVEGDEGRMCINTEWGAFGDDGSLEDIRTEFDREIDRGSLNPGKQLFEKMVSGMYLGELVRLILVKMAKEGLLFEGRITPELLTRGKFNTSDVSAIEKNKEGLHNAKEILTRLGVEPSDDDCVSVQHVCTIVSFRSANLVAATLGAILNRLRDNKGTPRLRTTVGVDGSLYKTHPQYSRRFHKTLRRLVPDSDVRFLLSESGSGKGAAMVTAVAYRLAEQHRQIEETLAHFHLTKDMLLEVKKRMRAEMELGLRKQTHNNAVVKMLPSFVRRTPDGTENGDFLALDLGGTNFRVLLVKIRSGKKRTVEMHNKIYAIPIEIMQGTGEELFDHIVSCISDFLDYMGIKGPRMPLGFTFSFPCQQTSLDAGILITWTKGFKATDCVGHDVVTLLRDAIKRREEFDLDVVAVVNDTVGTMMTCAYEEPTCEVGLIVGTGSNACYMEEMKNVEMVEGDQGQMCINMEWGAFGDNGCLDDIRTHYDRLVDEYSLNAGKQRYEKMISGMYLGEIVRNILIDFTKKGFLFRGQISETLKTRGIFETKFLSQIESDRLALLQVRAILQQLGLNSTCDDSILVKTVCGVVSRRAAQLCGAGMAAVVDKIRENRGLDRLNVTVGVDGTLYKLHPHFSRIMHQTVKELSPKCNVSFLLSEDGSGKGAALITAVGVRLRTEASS

HEK293 = assay: EBV LMP1 TES2 canonical NF-kB signalling blockers – cell-based, HEK293, luciferase, cherry-pick, dose response (AID 588343); assay type: functional; conditions: Homo sapiens
INS1 = assay: INS-1E survival protection against cytokine death – cell-based, luminescence, retest, dose response (AID 449756); assay type: functional; conditions: Rattus norvegicus;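 further: cell death triggered by IL-1 beta plus TNF-alpha plus IFN-gamma mixture; protective hits raise ATP signal compared with cytokine alone wells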
[9] = molecular target: ATP-dependent molecular chaperone HSP82 (Candida albicans (strain WO-1) (Yeast), UniProt C4YTQ8); assay: steroid-induced GRE reporter decrease in yeast – S. cerevisiae, luminescence, Hsp90 inhibitor project, dose response (AID 2400); assay type: functional, cell-based;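 further: beta-galactosidase luminescence from glucocorticoid response element reporter as proxy for Hsp90 function; inhibitor potency where signal loss means Hsp90 inhibition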
[10] = reduction of Shn3 3'UTR-driven luciferase in osteoblasts – cell-based, Clone20 osteoblasts, firefly luciferase, cherry-picked, dose response (AID 624132); assay type: functional;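 further: firefly luciferase luminescence from reporter carrying the Shn3 3'UTR in osteoblasts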
[11] = mammalian cell viability loss – Alamar Blue, dry powder, cytotoxicity control for antifungal single agent project, dose response (AID 602188); assay type: functional, cell-based
[12] = loss of viability in HepG2 cells – cell-based, CellTiter-Glo, cherry-picked, cytotoxicity control for Shn3 inhibitor project, dose response (AID 624134); assay type: functional
[13] = non-specific 3'UTR reporter inhibition in Clone20-Shn3RL – cell-based, Renilla luciferase, cherry-picked, counter-screen for Shn3 inhibitor project, dose response (AID 624133); assay type: functional

Chain of ATP-dependent molecular chaperone HSP82 (C4YTQ8 whole entry): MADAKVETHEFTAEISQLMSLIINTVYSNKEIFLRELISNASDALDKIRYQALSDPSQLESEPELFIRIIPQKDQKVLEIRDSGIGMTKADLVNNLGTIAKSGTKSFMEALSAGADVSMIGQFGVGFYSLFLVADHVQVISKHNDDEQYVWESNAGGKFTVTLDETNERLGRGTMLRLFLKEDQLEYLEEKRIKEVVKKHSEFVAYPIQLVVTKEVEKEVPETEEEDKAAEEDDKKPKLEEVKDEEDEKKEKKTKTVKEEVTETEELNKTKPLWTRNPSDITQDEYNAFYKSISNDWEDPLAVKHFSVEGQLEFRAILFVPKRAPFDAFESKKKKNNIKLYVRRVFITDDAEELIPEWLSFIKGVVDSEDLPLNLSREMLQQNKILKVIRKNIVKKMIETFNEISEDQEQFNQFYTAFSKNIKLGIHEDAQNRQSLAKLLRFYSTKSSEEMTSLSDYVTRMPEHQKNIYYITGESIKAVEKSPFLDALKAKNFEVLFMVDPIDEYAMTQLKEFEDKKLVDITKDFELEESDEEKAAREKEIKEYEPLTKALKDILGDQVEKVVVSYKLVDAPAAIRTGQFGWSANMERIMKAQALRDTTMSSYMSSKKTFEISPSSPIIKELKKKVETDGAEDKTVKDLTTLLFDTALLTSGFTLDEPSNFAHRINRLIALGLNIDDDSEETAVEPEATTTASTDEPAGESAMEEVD
Chain of Nonstructural protein 1 (Q194T2 whole entry): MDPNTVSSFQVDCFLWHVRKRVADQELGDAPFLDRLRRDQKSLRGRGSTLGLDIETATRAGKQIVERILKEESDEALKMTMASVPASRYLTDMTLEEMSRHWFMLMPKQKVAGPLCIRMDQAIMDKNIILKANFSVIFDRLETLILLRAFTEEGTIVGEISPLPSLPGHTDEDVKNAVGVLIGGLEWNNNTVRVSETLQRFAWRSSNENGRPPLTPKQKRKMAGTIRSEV

**Q.** Which results are given for `O=C(NNC(=S)Nc1ccc(Cl)c(Cl)c1)c1ccccn1`?
**A.** EC50 [1]: 42 µM (inconclusive); EC50 [2]: 2.3 µM (active); EC50 (cells [3]): 10.5 µM (active); EC50 [4]: 853 nM (active); EC50 [5]: 1.53 µM (active); EC50 (cells [6]): > 350 µM (not active); EC50 [7]: > 180 µM (inactive); EC50 [8]: 5.02 µM (active); EC50 (Streptococcus): 3.32 µM (active); EC50 (Hexokinase HKDC1): 2.2 µM (active); IC50 (Nonstructural protein 1): 5.57 µM (active); EC50 (Hexokinase-1): > 80 µM (inactive); AC50 (HEK293): 6.08 µM (active); AC50 (INS1): 1.06 µM (active); EC50 [9]: > 150 µM (inactive); AC50 [10]: 2.33 µM (active); AC50 [11]: 2.98 µM (active); AC50 [12]: 3.72 µM (active); AC50 [13]: 2.44 µM (active)
